Laboratory results as given in PubChem BioAssay (NCI).
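Assay format: 96-well plates, 48-hour exposure. GI50 is the concentration that inhibits growth by half. TGI is the concentration that stops growth completely.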

Legend:
Test in all cases: NCI tumour cell line growth inhibition, 48 h
UO-31 renal = tested on: UO-31 renal
MDA-MB-435 = tested on: MDA-MB-435
MDA-MB-468 breast = tested on: MDA-MB-468 breast
RXF 393 renal = tested on: RXF 393 renal
OVCAR-4 ovarian = tested on: OVCAR-4 ovarian
SF-268 CNS = tested on: SF-268 CNS
HS 578T breast = tested on: HS 578T breast
ACHN renal = tested on: ACHN renal
SF-539 CNS = tested on: SF-539 CNS
HCT-15 colon = tested on: HCT-15 colon
BT-549 breast = tested on: BT-549 breast
786-0 renal = tested on: 786-0 renal
SNB-19 CNS = tested on: SNB-19 CNS
SK-MEL-5 melanoma = tested on: SK-MEL-5 melanoma
SW-620 colon = tested on: SW-620 colon
TK-10 renal = tested on: TK-10 renal
SNB-75 CNS = tested on: SNB-75 CNS
NCI-H23 lung = tested on: NCI-H23 lung
NCI-H226 lung = tested on: NCI-H226 lung
NCI-H522 lung = tested on: NCI-H522 lung
OVCAR-8 ovarian = tested on: OVCAR-8 ovarian
NCI/ADR-RES ovarian = tested on: NCI/ADR-RES ovarian
IGROV1 ovarian = tested on: IGROV1 ovarian
PC-3 prostate = tested on: PC-3 prostate
UACC-257 melanoma = tested on: UACC-257 melanoma
LOX IMVI melanoma = tested on: LOX IMVI melanoma
NCI-H460 lung = tested on: NCI-H460 lung
SR leukemia = tested on: SR leukemia
RPMI-8226 leukemia = tested on: RPMI-8226 leukemia
COLO 205 colon = tested on: COLO 205 colon
DU-145 prostate = tested on: DU-145 prostate
CCRF-CEM leukemia = tested on: CCRF-CEM leukemia
UACC-62 melanoma = tested on: UACC-62 melanoma
HOP-62 NSCLC = tested on: HOP-62 NSCLC
SF-295 CNS = tested on: SF-295 CNS
HL-60(TB) leukemia = tested on: HL-60(TB) leukemia
SK-MEL-2 melanoma = tested on: SK-MEL-2 melanoma
A498 renal = tested on: A498 renal
MALME-3M melanoma = tested on: MALME-3M melanoma
A549 NSCLC = tested on: A549 NSCLC
OVCAR-3 ovarian = tested on: OVCAR-3 ovarian
CAKI-1 renal = tested on: CAKI-1 renal
T-47D breast = tested on: T-47D breast
OVCAR-5 ovarian = tested on: OVCAR-5 ovarian
HCT-116 colon = tested on: HCT-116 colon
K-562 leukemia = tested on: K-562 leukemia
U251 CNS = tested on: U251 CNS
SK-OV-3 ovarian = tested on: SK-OV-3 ovarian
HT29 colon = tested on: HT29 colon
SN12C renal = tested on: SN12C renal
HOP-92 NSCLC = tested on: HOP-92 NSCLC
MDA-MB-231 breast = tested on: MDA-MB-231 breast
MOLT-4 leukemia = tested on: MOLT-4 leukemia
MCF7 breast = tested on: MCF7 breast
SK-MEL-28 melanoma = tested on: SK-MEL-28 melanoma
EKVX NSCLC = tested on: EKVX NSCLC
KM12 colon = tested on: KM12 colon
M14 melanoma = tested on: M14 melanoma
HCC-2998 colon = tested on: HCC-2998 colon

Compound `O=C(CS(=O)(=O)c1oc(-c2ccc(Cl)cc2)nc1S(=O)(=O)c1ccc(Cl)cc1)N1CCOCC1` has a GI50 (UO-31 renal) of 8.79 µM, a TGI (UO-31 renal) of 21.1 µM and a GI50 (MDA-MB-435) of 12 µM. The TGI (MDA-MB-435) was 25.7 µM, the GI50 (MDA-MB-468 breast) was 2.52 µM and the TGI (MDA-MB-468 breast) was 8.07 µM. The GI50 (RXF 393 renal) was 2.58 µM, the TGI (RXF 393 renal) was 8.82 µM and the GI50 (OVCAR-4 ovarian) was 12.7 µM. The TGI (OVCAR-4 ovarian) was 27.6 µM, the GI50 (SF-268 CNS) was 15.1 µM and the TGI (SF-268 CNS) was 33.7 µM. For the same compound, the GI50 (HS 578T breast) was 7.9 µM, the TGI (HS 578T breast) was 36.4 µM and the GI50 (ACHN renal) was 3.17 µM. The TGI (ACHN renal) was 11.3 µM, the GI50 (SF-539 CNS) was 7.94 µM and the TGI (SF-539 CNS) was 20.5 µM. It also gave a GI50 (HCT-15 colon) of 2.27 µM, a TGI (HCT-15 colon) of 5.68 µM and a GI50 (BT-549 breast) of 4.64 µM. It also gave a TGI (BT-549 breast) of 16.8 µM, a GI50 (786-0 renal) of 7.65 µM and a TGI (786-0 renal) of 21.8 µM. The GI50 (SNB-19 CNS) was 27.5 µM, the TGI (SNB-19 CNS) was over 100 µM and the GI50 (SK-MEL-5 melanoma) was 24.3 µM. The TGI (SK-MEL-5 melanoma) was 86.3 µM, the GI50 (SW-620 colon) was 2.06 µM and the TGI (SW-620 colon) was 4.8 µM. It also gave a GI50 (TK-10 renal) of 14.3 µM, a TGI (TK-10 renal) of 27.8 µM and a GI50 (SNB-75 CNS) of 4.89 µM. For the same compound, the TGI (SNB-75 CNS) was 23.2 µM, the GI50 (NCI-H23 lung) was 13.4 µM and the TGI (NCI-H23 lung) was 26.5 µM. It also gave a GI50 (NCI-H226 lung) of 22.9 µM, a TGI (NCI-H226 lung) of 91 µM and a GI50 (NCI-H522 lung) of 1.64 µM. It also gave a TGI (NCI-H522 lung) of 3.51 µM, a GI50 (OVCAR-8 ovarian) of 15.4 µM and a TGI (OVCAR-8 ovarian) of 35.4 µM. For the same compound, the GI50 (NCI/ADR-RES ovarian) was 14.5 µM, the TGI (NCI/ADR-RES ovarian) was 31.2 µM and the GI50 (IGROV1 ovarian) was 11 µM. For the same compound, the TGI (IGROV1 ovarian) was 23.7 µM, the GI50 (PC-3 prostate) was 11.9 µM and the TGI (PC-3 prostate) was 31.5 µM. It also gave a GI50 (UACC-257 melanoma) of 15.4 µM, a TGI (UACC-257 melanoma) of 30.2 µM and a GI50 (LOX IMVI melanoma) of 1.84 µM. For the same compound, the TGI (LOX IMVI melanoma) was 4.27 µM, the GI50 (NCI-H460 lung) was 16.5 µM and the TGI (NCI-H460 lung) was 39.4 µM. For the same compound, the GI50 (SR leukemia) was 2.86 µM, the TGI (SR leukemia) was over 100 µM and the GI50 (RPMI-8226 leukemia) was 5.2 µM. It also gave a TGI (RPMI-8226 leukemia) of over 100 µM, a GI50 (COLO 205 colon) of 11.6 µM and a TGI (COLO 205 colon) of 55.9 µM. The GI50 (DU-145 prostate) was 12.3 µM, the TGI (DU-145 prostate) was 24.8 µM and the GI50 (CCRF-CEM leukemia) was 1.68 µM. The TGI (CCRF-CEM leukemia) was 24.2 µM, the GI50 (UACC-62 melanoma) was 11.1 µM and the TGI (UACC-62 melanoma) was 23.8 µM. It also gave a GI50 (HOP-62 NSCLC) of 18.1 µM, a TGI (HOP-62 NSCLC) of 47.3 µM and a GI50 (SF-295 CNS) of 16.9 µM. The TGI (SF-295 CNS) was 54.7 µM, the GI50 (HL-60(TB) leukemia) was 4.49 µM and the TGI (HL-60(TB) leukemia) was 34.9 µM. For the same compound, the GI50 (SK-MEL-2 melanoma) was 16.7 µM, the TGI (SK-MEL-2 melanoma) was 32.4 µM and the GI50 (A498 renal) was 26.8 µM. It also gave a TGI (A498 renal) of 93.4 µM, a GI50 (MALME-3M melanoma) of 2.81 µM and a TGI (MALME-3M melanoma) of 9.77 µM. The GI50 (A549 NSCLC) was 45.9 µM, the TGI (A549 NSCLC) was over 100 µM and the GI50 (OVCAR-3 ovarian) was 3.3 µM. For the same compound, the TGI (OVCAR-3 ovarian) was 10.5 µM, the GI50 (CAKI-1 renal) was 6.63 µM and the TGI (CAKI-1 renal) was 19.4 µM. The GI50 (T-47D breast) was 3.32 µM, the TGI (T-47D breast) was 16.3 µM and the GI50 (OVCAR-5 ovarian) was 13.6 µM. For the same compound, the TGI (OVCAR-5 ovarian) was 31.6 µM, the GI50 (HCT-116 colon) was 3.04 µM and the TGI (HCT-116 colon) was 11.4 µM. The GI50 (K-562 leukemia) was 2.14 µM, the TGI (K-562 leukemia) was over 100 µM and the GI50 (U251 CNS) was 38 µM. The TGI (U251 CNS) was over 100 µM, the GI50 (SK-OV-3 ovarian) was 40.8 µM and the TGI (SK-OV-3 ovarian) was over 100 µM. The GI50 (HT29 colon) was 4.32 µM, the TGI (HT29 colon) was 40.2 µM and the GI50 (SN12C renal) was 12.1 µM. For the same compound, the TGI (SN12C renal) was 25.8 µM, the GI50 (HOP-92 NSCLC) was 10.7 µM and the TGI (HOP-92 NSCLC) was 28.6 µM. It also gave a GI50 (MDA-MB-231 breast) of 6.7 µM, a TGI (MDA-MB-231 breast) of 19.3 µM and a GI50 (MOLT-4 leukemia) of 2.54 µM. It also gave a TGI (MOLT-4 leukemia) of 18.7 µM, a GI50 (MCF7 breast) of 4 µM and a TGI (MCF7 breast) of 18.5 µM. It also gave a GI50 (SK-MEL-28 melanoma) of 12.1 µM, a TGI (SK-MEL-28 melanoma) of 24.5 µM and a GI50 (EKVX NSCLC) of 12.1 µM. The TGI (EKVX NSCLC) was 26.4 µM, the GI50 (KM12 colon) was 29.5 µM and the TGI (KM12 colon) was over 100 µM. For the same compound, the GI50 (M14 melanoma) was 6.75 µM, the TGI (M14 melanoma) was 21 µM and the GI50 (HCC-2998 colon) was 17.2 µM. For the same compound, the TGI (HCC-2998 colon) was 40.8 µM.
